Test results taken from patent publication US20240197738A1, “COMPOUND 7AI IN TREATING EWING SARCOMA BY INHIBITING OTUD7A” (The University of North Carolina at Chapel Hill, priority 2021, published 2024).

Test system: MHH-ES-1 cells
Assay: Cell viability (MTT) assay, MHH-ES-1
Format: cell-based, human
Details: MHH-ES-1, 3-day treatment
Procedure: 2,000 indicated cells were seeded in each well of 96-well plates for MTT assays to monitor cell viability at indicated time periods using a method adapted from https://www.thermofisher.com/us/en/home/references/protocols/cell-culture/mtt-assay-protocol/vybrant-mtt-cell-proliferation-assay-kit.html. Briefly, at indicated time points post-cell seeding, 10 μL MTT solution was added into each well and incubated in the culture incubator (37° C. with 5% CO2) for 4 hrs. Then medium was removed and 100 μL DMSO was added into each well to dissolve the formazan crystal and incubated for 10 min at 37° C. After thorough mixing, absorbance at 540 nm was measured using the BioTek Cytation 5 Cell Imaging reader.

Q: `Cn1nccc1-c1cc(-c2ccnn2C)n2nc(C(=O)Nc3cnn(Cc4c(Cl)cccc4Cl)c3)cc2n1` [7Ai] was tested. Which “proliferation (cell viability)” value did it give?
A: Its value is “reduced MHH-ES-1 proliferation”.
